# Data reported in patent EP4813991A1 (iLeadBMS Co., Ltd., priority 2023, dated 2025).
# Read-outs that look alike come from different tables or passages of the source.
# How the values were obtained:
# CDK12 [1] = target: T1, CDK12 (Homo sapiens, UniProt Q9NYV4); assay: CDK12 kinase inhibitory activity assay (33P-ATP filter binding); format: biochemical
# Description: (§1) Before initiating the CDK12 and CDK13 kinase reactions, each Example compound was dissolved and diluted in DMSO as a solvent across 9 concentration ranges at room temperature. The diluted solutions were then incubated with a mixture of kinase and substrate (and cofactors, if required) for 20 minutes. Next, radioisotope-labeled ATP (^33P-gamma-ATP) was added to proceed with the kinase reaction at room temperature for 120 minutes. After the reaction was completed, the reaction mixture was transferred to a filter paper that binds the radioisotope-labeled catalytic product (^33P-substrate). Unreacted ^33P-ATP was removed by washing with 0.75 % phosphoric acid, and then the radioactive phosphorylated substrate remaining on the filter paper was measured. Kinase activity data were expressed as a percentage of the kinase activity remaining in the test sample compared to a DMSO control group. The half-maximal inhibitory concentration (IC50) for each kinase was calculated using Prism (Graphpad) software.
# CDK12 [2] = target: T1, CDK12; assay: Cellular CDK12 inhibitory activity assay (Ser2 phosphorylation of RNA polymerase II subunit B1 CTD in MDA-MB-231 cells); format: cell-based; set-up: using MDA-MB-231 breast cancer cells; endogenous in cells; host or cells: MDA-MB-231
# Description: MDA-MB-231 cells were dispensed into a 96-well plate at 100 µL of cell suspension per well using L-15 (Invitrogen) medium containing 10 % FBS, followed by overnight incubation in a cell incubator at 37 °C and 0 % CO2. The next day, each Example compound dissolved in DMSO across 9 concentration ranges and a DMSO control group were treated on the MDA-MB-231 cells at 37 °C and 0 % CO2 for 6 hours. After the compound treatment, the medium in the 96-well plate was removed, and 60 µL of a fixing solution (4.0 % paraformaldehyde in PBS) was added to each well, followed by standing for 20 minutes. After removing the fixing solution and washing with PBS, 60 µL of PBS containing 0.1 % Triton X-100 was dispensed into each well, followed by shaking at room temperature for 15 minutes. After washing with PBS, 100 µL of blocking buffer was added, followed by shaking at room temperature for 1 hour. After removing the blocking buffer, primary antibodies, which are RNA polymerase II subunit B1 phospho-Ser2 (1:500, Cell signaling technology) and RNA polymerase II subunit B1 carboxy-terminal domain (1:200, Cell signaling technology), were added at 60 µL per well and reacted overnight at 4 °C. After adding 150 µL of PBS containing 0.1 % Triton X-100 and washing at least twice by shaking at room temperature for 5 minutes, 60 µL of a secondary antibody was added, followed by shaking at room temperature for 1 hour while blocking light. After adding 150 µL of PBS containing 0.1 % Triton X-100 and washing at least twice by shaking at room temperature for 5 minutes, 150 µL of PBS was added again, followed by washing at least twice by shaking at room temperature for 5 minutes. The plate was scanned using a Li-COR Odyssey machine with the wells filled with PBS. IC50 values were calculated by fitting a dose-response curve using a 4-parameter model of Prism (Graphpad) software.
# CDK13 = CDK13 (Homo sapiens, UniProt Q14004); assay: CDK13 kinase inhibitory activity assay (33P-ATP filter binding); format: biochemical
# CDK13, sequence (Q14004 whole entry, species assumed): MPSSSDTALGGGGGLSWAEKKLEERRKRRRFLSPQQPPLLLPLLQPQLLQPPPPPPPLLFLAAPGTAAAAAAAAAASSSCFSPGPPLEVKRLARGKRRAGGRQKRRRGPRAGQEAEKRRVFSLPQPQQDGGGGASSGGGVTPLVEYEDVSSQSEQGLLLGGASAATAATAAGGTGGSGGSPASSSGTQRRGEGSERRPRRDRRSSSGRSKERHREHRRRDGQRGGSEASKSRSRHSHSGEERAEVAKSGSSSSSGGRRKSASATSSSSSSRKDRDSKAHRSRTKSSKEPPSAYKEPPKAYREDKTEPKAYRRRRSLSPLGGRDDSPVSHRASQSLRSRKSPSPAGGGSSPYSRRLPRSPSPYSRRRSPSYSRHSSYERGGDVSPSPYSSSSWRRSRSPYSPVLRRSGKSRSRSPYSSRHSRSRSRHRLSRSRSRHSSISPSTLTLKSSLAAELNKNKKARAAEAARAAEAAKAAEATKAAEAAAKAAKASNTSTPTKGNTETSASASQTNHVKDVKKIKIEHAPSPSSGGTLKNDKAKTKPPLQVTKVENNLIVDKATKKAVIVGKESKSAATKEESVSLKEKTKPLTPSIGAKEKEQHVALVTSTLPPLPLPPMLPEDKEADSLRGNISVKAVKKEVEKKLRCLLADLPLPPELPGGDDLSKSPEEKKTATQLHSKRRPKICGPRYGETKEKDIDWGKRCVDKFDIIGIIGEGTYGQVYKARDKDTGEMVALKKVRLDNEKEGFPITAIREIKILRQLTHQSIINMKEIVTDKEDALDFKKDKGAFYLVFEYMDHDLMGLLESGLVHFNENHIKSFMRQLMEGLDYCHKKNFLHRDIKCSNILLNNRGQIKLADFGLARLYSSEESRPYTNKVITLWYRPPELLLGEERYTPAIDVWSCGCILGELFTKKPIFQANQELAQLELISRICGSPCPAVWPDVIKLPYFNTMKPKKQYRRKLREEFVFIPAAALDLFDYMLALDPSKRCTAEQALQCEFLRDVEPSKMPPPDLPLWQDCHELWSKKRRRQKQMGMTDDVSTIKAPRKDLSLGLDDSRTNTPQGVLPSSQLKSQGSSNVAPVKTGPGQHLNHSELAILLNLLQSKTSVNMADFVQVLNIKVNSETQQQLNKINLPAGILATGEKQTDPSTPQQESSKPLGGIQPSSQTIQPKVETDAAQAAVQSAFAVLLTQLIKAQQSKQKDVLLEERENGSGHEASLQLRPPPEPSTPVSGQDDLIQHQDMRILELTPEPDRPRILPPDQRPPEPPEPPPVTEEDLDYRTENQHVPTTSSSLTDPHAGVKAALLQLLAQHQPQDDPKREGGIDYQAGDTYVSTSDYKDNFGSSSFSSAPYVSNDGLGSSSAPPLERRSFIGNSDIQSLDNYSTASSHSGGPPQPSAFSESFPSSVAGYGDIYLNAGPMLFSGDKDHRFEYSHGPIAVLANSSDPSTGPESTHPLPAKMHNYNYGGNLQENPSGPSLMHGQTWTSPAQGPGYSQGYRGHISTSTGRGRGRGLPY
# CDK13, sequence (O75909 whole entry partner, species assumed): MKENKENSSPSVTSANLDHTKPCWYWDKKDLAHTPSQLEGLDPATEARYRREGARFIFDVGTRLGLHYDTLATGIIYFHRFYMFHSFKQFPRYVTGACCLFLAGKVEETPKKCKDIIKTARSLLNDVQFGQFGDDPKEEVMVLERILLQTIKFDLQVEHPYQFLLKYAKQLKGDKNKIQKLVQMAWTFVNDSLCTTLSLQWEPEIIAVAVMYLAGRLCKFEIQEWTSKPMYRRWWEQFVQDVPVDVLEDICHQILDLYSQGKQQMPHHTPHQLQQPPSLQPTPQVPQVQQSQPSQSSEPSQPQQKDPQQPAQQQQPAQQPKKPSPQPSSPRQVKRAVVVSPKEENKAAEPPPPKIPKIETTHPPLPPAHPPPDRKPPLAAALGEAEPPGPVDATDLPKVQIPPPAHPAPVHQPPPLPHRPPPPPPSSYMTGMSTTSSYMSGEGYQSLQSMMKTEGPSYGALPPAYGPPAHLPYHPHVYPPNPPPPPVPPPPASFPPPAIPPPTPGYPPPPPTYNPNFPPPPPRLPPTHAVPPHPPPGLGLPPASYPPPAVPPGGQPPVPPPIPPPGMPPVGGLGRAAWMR
# Description: as §1
# [3] = test system: MDA-MB-231 breast cancer cells; assay: Proliferation inhibitory activity assay against MDA-MB-231 breast cancer cells; format: cell-based; details: Homo sapiens, 72 hours, CellTiter Glo, relative IC50
# Description: Experiments were performed using the MDA-MB-231 breast cancer cell line to measure the cell proliferation inhibitory ability of each Example compound. MDA-MB-231 cells were dispensed into a 96-well plate at 100 µL of cell suspension per well using L-15 (Invitrogen) medium containing 10 % FBS, followed by incubation in a cell incubator at 37 °C and 0 % CO2. The next day, each Example compound dissolved and diluted in DMSO across 9 concentration ranges and a DMSO control group were treated on the cells for 72 hours. After the compound treatment was completed, 100 µL of CellTiter Glo (Promega) reagent was added to each well of the 96-well plate, followed by shaking for 10 minutes and standing at room temperature for 10 minutes. Luminescence signals were measured after inserting the 96-well plate into an Envision plate reader (PerkinElmer). Relative IC50 values were calculated by fitting a dose-response curve using XLfit (IDBS Ltd) software.
# The breast cancer cell proliferation inhibitory activities of the Example compounds measured by the above method were evaluated according to the following criteria, and the results are presented in Table 13.
# [4] = kinase reaction 120 minutes, 33P-gamma-ATP, read-out: CDK12 IC50
# [5] = MDA-MB-231 cells, 6 hours treatment, read-out: pRpbl CTD S2 IC50
# [6] = kinase reaction 120 minutes, 33P-gamma-ATP, read-out: CDK13 IC50
# T1 sequence (Q9NYV4 whole entry, species assumed): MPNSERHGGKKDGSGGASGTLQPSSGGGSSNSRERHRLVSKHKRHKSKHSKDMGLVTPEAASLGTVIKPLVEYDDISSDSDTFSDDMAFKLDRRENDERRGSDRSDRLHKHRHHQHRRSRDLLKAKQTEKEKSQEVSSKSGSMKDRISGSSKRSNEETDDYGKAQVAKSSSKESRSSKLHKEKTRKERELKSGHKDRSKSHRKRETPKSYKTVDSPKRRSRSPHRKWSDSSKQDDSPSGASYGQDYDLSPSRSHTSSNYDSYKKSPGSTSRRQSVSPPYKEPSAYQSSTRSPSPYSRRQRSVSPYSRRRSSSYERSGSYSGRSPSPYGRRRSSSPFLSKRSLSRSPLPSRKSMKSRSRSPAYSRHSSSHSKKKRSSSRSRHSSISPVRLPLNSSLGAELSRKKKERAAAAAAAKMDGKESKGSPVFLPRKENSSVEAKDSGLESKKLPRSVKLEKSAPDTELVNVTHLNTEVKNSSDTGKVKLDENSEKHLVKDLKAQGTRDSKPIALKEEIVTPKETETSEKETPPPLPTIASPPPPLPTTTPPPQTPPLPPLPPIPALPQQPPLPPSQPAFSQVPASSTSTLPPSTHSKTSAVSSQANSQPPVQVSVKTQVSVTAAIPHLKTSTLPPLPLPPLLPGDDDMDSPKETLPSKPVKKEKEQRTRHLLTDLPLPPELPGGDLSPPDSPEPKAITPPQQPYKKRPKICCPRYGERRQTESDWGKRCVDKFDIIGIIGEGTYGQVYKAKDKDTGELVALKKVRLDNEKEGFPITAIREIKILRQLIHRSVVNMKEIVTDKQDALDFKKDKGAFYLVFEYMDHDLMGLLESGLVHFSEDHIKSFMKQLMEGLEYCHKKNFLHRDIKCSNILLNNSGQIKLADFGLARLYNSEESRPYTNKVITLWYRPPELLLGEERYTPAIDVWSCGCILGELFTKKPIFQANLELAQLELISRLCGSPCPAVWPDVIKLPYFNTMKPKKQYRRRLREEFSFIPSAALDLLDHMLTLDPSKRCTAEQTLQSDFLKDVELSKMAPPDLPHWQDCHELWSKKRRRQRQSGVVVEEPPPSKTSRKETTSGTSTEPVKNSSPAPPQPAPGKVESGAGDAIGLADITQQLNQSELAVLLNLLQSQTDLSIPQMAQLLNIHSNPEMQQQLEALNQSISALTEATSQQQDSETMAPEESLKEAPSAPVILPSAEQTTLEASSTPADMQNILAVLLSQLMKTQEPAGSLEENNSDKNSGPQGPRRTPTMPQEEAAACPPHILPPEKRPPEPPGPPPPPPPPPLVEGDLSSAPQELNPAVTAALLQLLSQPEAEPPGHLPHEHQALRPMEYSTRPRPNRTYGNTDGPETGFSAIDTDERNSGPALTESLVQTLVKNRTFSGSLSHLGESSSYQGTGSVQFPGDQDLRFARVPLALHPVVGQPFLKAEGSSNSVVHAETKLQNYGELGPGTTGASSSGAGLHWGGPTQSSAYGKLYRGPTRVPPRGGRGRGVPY
# T1 sequence (O75909 whole entry partner, species assumed): as the sequence (O75909 whole entry partner, species assumed) above
compound,measurement,setting,value
"C#Cc1cnc2c(NCc3nc4ccc(F)c(F)c4[nH]3)cc(N3CCOCC3)nn12 [Example 1, N-((6,7-difluoro-1H-benzo[d]imidazol-2-yl)methyl)-3-ethynyl-6-morpholinoimidazo[1,2-b]pyridazin-8-amine]",IC50,CDK12 [1]; [4],0.1 to 0.5 µM
same,IC50,CDK12 [2]; [5],0.3 to 3 µM
same,IC50,CDK13,< 0.1 µM
same,IC50,[3],0.05 to 0.5 µM
"Fc1ccc2nc(CNc3cc(N4CCOCC4)nn4c(CC(F)(F)F)cnc34)[nH]c2c1F [Example 2, N-((6,7-difluoro-1H-benzo[d]imidazol-2-yl)methyl)-6-morpholino-3-(2,2,2-trifluoroethyl)imidazo[1,2-b]pyridazin-8-amine]",IC50,CDK12 [1]; [4],0.1 to 0.5 µM
same,IC50,CDK12 [2]; [5],0.3 to 3 µM
same,IC50,CDK13,0.1 to 0.5 µM
same,IC50,[3],0.05 to 0.5 µM
"CC(C)c1cnc2c(NCc3nc4ccc(F)c(F)c4[nH]3)cc(N3CCOCC3)nn12 [Example 3, N-((6,7-difluoro-1H-benzo[d]imidazol-2-yl)methyl)-3-isopropyl-6-morpholinoimidazo[1,2-b]pyridazin-8-amine]",IC50,CDK12 [1]; [4],> 0.5 µM
same,IC50,CDK12 [2]; [5],0.3 to 3 µM
same,IC50,CDK13,0.1 to 0.5 µM
same,IC50,[3],0.05 to 0.5 µM
"Cc1cnc2c(NCc3nc4ccc(F)c(F)c4[nH]3)cc(N3CCOCC3)nn12 [Example 4, N-((6,7-difluoro-1H-benzo[d]imidazol-2-yl)methyl)-3-methyl-6-morpholinoimidazo[1,2-b]pyridazin-8-amine]",IC50,CDK12 [1]; [4],> 0.5 µM
same,IC50,CDK12 [2]; [5],> 3 µM
same,IC50,CDK13; [6],0.1 to 0.5 µM
same,IC50,[3],> 0.5 µM
"CCc1cnc2c(NCc3nc4ccc(F)c(F)c4[nH]3)cc(N3CCOCC3)nn12 [Example 5, N-((6,7-difluoro-1H-benzo[d]imidazol-2-yl)methyl)-3-ethyl-6-morpholinoimidazo[1,2-b]pyridazin-8-amine]",IC50,CDK12 [1]; [4],0.1 to 0.5 µM
same,IC50,CDK12 [2]; [5],0.3 to 3 µM
same,IC50,CDK13; [6],< 0.1 µM
same,IC50,[3],0.05 to 0.5 µM
"Fc1ccc2nc(CNc3cc(N4CCOCC4)nn4c(C(F)(F)F)cnc34)[nH]c2c1F [Example 6, N-((6,7-difluoro-1H-benzo[d]imidazol-2-yl)methyl)-6-morpholino-3-(trifluoromethyl)imidazo[1,2-b]pyridazin-8-amine]",IC50,CDK12 [1]; [4],< 0.1 µM
same,IC50,CDK12 [2]; [5],< 0.3 µM
same,IC50,CDK13; [6],< 0.1 µM
same,IC50,[3],≤ 0.05 µM
Fc1ccc2nc(CNc3cc(N4CC5CCC(C4)O5)nn4c(C(F)(F)F)cnc34)[nH]c2c1F [Example 9],IC50,CDK12 [1],< 0.1 µM
same,IC50,CDK12 [2]; [5],< 0.3 µM
same,IC50,CDK13; [6],< 0.1 µM
same,IC50,[3],≤ 0.05 µM
"Fc1ccc2nc(CNc3cc(N4CC5CCC(C4)N5)nn4c(C(F)(F)F)cnc34)[nH]c2c1F [Example 10, 6-(3,8-diazabicyclo[3.2.1]octan-3-yl)-N-((6,7-difluoro-1H-benzo[d]imidazol-2-yl)methyl)-3-(trifluoromethyl)imidazo[1,2-b]pyridazin-8-amine]",IC50,CDK12 [1]; [4],< 0.1 µM
same,IC50,CDK12 [2]; [5],< 0.3 µM
same,IC50,CDK13; [6],< 0.1 µM
same,IC50,[3],≤ 0.05 µM
Fc1ccc2nc(CNc3cc(N4CC5CCC4CO5)nn4c(C(F)(F)F)cnc34)[nH]c2c1F (stereo not shown) [Example 12],IC50,CDK12 [1],< 0.1 µM
same,IC50,CDK12 [2]; [5],< 0.3 µM
same,IC50,CDK13; [6],< 0.1 µM
same,IC50,[3],≤ 0.05 µM
Fc1ccc2nc(CNc3cc(N4CCC4)nn4c(C(F)(F)F)cnc34)[nH]c2c1F [Example 15],IC50,CDK12 [1]; [4],0.1 to 0.5 µM
same,IC50,CDK12 [2]; [5],0.3 to 3 µM
same,IC50,CDK13; [6],< 0.1 µM
same,IC50,[3],≤ 0.05 µM
"CC#Cc1cnc2c(NCc3nc4ccc(F)c(F)c4[nH]3)cc(-c3cnc(N)nc3)nn12 [Example 20, 6-(2-aminopyrimidin-5-yl)-N-((6,7-difluoro-1H-benzo[d]imidazol-2-yl)methyl)-3-(prop-1-yn-1-yl)imidazo[1,2-b]pyridazin-8-amine]",IC50,CDK12 [1]; [4],> 0.5 µM
same,IC50,CDK12 [2]; [5],0.3 to 3 µM
same,IC50,CDK13; [6],0.1 to 0.5 µM
same,IC50,[3],0.05 to 0.5 µM
"Nc1ncc(-c2cc(NCc3nc4ccc(F)c(F)c4[nH]3)c3ncc(C#CC4CC4)n3n2)cn1 [Example 21, 6-(2-aminopyrimidin-5-yl)-3-(cyclopropylethynyl)-N-((6,7-difluoro-1H-benzo[d]imidazol-2-yl)methyl)imidazo[1,2-b]pyridazin-8-amine]",IC50,CDK12 [1]; [4],> 0.5 µM
same,IC50,CDK12 [2]; [5],> 3 µM
same,IC50,CDK13; [6],> 0.5 µM
same,IC50,[3],> 0.5 µM
"CC#Cc1cnc2c(NCc3nc4ccc(F)c(F)c4[nH]3)cc(N3CCOCC3)nn12 [Example 24, N-((6,7-difluoro-1H-benzo[d]imidazol-2-yl)methyl)-6-morpholino-3-(prop-1-yn-1-yl)imidazo[1,2-b]pyridazin-8-amine]",IC50,CDK12 [1]; [4],> 0.5 µM
same,IC50,CDK12 [2]; [5],> 3 µM
same,IC50,CDK13; [6],0.1 to 0.5 µM
same,IC50,[3],> 0.5 µM
"Fc1ccc2nc(CNc3cc(N4CCOCC4)nn4c(C#CC5CC5)cnc34)[nH]c2c1F [Example 25, 3-(cyclopropylethynyl)-N-((6,7-difluoro-1H-benzo[d]imidazol-2-yl)methyl)-6-morpholinoimidazo[1,2-b]pyridazin-8-amine]",IC50,CDK12 [1]; [4],> 0.5 µM
same,IC50,CDK12 [2]; [5],> 3 µM
same,IC50,CDK13; [6],> 0.5 µM
same,IC50,[3],> 0.5 µM
"Fc1ccc2nc(CNc3cc(N4CCOCC4)nn4c(I)cnc34)[nH]c2c1F [Example 26, N-((6,7-difluoro-1H-benzo[d]imidazol-2-yl)methyl)-3-iodo-6-morpholinoimidazo[1.2-b]pyridazin-8-amine]",IC50,CDK12 [1],> 0.5 µM
same,IC50,CDK12 [2],> 3 µM
same,IC50,CDK13,> 0.5 µM
same,IC50,[3],> 0.5 µM
"Fc1ccc2nc(CNc3cc(N4CCOCC4)nn4c(Cl)cnc34)[nH]c2c1F [Example 27, 3-chloro-N-((6,7-difluoro-1H-benzo[d]imidazol-2-yl)methyl)-6-morpholinoimidazo[1,2-b]pyridazin-8-amine]",IC50,CDK12 [1],> 0.5 µM
same,IC50,CDK12 [2]; [5],> 3 µM
same,IC50,CDK13; [6],> 0.5 µM
same,IC50,[3],> 0.5 µM
"Fc1ccc2nc(CNc3cc(N4CCN(C5CC5)CC4)nn4c(C(F)(F)F)cnc34)[nH]c2c1F [Example 28, 6-(4-cyclopropylpiperazin-1-yl)-N-((6,7-difluoro-1H-benzo[d]imidazol-2-yl)methyl)-3-(trifluoromethyl)imidazo[1,2-b]pyridazin-8-amine]",IC50,CDK12 [1]; [4],0.1 to 0.5 µM
same,IC50,CDK12 [2]; [5],0.3 to 3 µM
same,IC50,CDK13,0.1 to 0.5 µM
same,IC50,[3],0.05 to 0.5 µM
"FC(F)(F)c1cnc2c(NCc3nc4cc(Cl)c(Cl)cc4[nH]3)cc(N3CC4CC(C4)C3)nn12 [Example 31, 6-(3-azabicyclo[3.1.1]heptan-3-yl)-N-((5,6-dichloro-1H-benzo[d]imidazol-2-yl)methyl)-3-(trifluoromethyl)imidazo[1,2-b]pyridazin-8-amine]",IC50,CDK12 [1]; [4],> 0.5 µM
same,IC50,CDK12 [2]; [5],0.3 to 3 µM
same,IC50,CDK13; [6],0.1 to 0.5 µM
same,IC50,[3],> 0.5 µM
FC(F)(F)c1cnc2c(NCc3nc4cc(Cl)c(Cl)cc4[nH]3)cc(N3CC4CC(C3)O4)nn12 [Example 32],IC50,"CDK12 [1]; read-out: CDK12 IC50, kinase reaction 120 minutes, 33P-gamma-ATP",0.1 to 0.5 µM
same,IC50,CDK12 [2]; [5],< 0.3 µM
same,IC50,CDK13; [6],0.1 to 0.5 µM
same,IC50,[3],≤ 0.05 µM
CN1C2CCC1CN(c1cc(NCc3nc4cc(Cl)c(Cl)cc4[nH]3)c3ncc(C(F)(F)F)n3n1)C2 [Example 33],IC50,CDK12 [1]; [4],< 0.1 µM
same,IC50,CDK12 [2]; [5],< 0.3 µM
same,IC50,CDK13; [6],< 0.1 µM
same,IC50,[3],≤ 0.05 µM
"N#CC1CN(c2cc(NCc3nc4ccc(F)c(F)c4[nH]3)c3ncc(C(F)(F)F)n3n2)C1 [Example 54, 1-(8-(((6,7-difluoro-1H-benzo[d]imidazol-2-yl)methyl)amino)-3-(trifluoromethyl)imidazo[1,2-b]pyridazin-6-yl)azetidine-3-carbonitrile]",IC50,CDK12 [2]; [5],0.3 to 3 µM
same,IC50,[3],0.05 to 0.5 µM
